System: NAD^+/NADH ratio in A2780 cells
Experiment: NAD+/NADH determination in cells
Format: cell-based, human
Method: Experiments to determine the NAD^+/NADH ratio in A2780 ovarian cancer cells exposed to complex 2 were carried out using the NAD^+/NADH assay kit from Abcam (ab65348) according to the manufacturer’s instructions. Briefly, A2780 cells were seeded in six-well plates at a density of 1.0 × 10^6 cells per well. […] These concentrations of sodium formate were also used on their own as a second set of negative controls. Drug exposure was allowed for 24 h, after which all supernatants were removed by suction and wells were washed with PBS. Cells were treated with trypsin, detached and counted before being pelleted by centrifugation. Cell pellets were extracted using the NAD/NADH extraction buffer and filtered using a 10-kDa-molecular weight cutoff filter. Samples were split into two, the first half was used to determine total NADt (NAD+NADH), and the second half to determine NADH after heating the samples at 333 K for 30 min. The absorbance at 450 nm was normalized against the protein content in each sample determined using the Bradford assay.
Experiments to determine the time dependence of the NAD/NADH ratio in A2780 ovarian cancer cells exposed to complex 2 were carried out using the NAD^+/NADH assay kit as described above with the following modifications.

Cc1ccc(C(C)C)cc1.Cc1ccc(S(=O)(=O)[N-]CCN)cc1.[Cl-].[Ru+2] [Complex 2, [(p-cym)Ru(TsEn)Cl]]
apparent TOF (TOFap) for conversion of NAD+ to NADH in cells (A2780, 4.5 μM complex 2 and 2 mM sodium formate, 0-24 h): 0.19 ± 0.01 h⁻¹
NAD+/NADH ratio (A2780, complex 2, 24 h, 2 mM formate): 1.1
NAD+/NADH ratio (A2780, complex 2, 24 h, no formate): 4.5
NAD+/NADH ratio (A2780, complex 2 and 2 mM sodium formate, after 12 h): 0.74
NAD+/NADH ratio (A2780, complex 2 and 2 mM sodium formate, after 24 h): 0.98
NAD+/NADH ratio (A2780, complex 2 and 2 mM sodium formate, t=4 h): 0.83
